The values below come from patent publication US11702426B2, “Macrocyclic deaza-purinones for the treatment of viral infections” (JANSSEN SCIENCES IRELAND UNLIMITED COMPANY, priority 2013, dated 2023).

The structures appear in SMILES notation.

The target in assay [1] is T1, human TLR7 (Homo sapiens, UniProt Q9NYK1).
T1 construct: expressed in transfected cells; host or cells: HEK293
T1 sequence (Q9NYK1 27-1049): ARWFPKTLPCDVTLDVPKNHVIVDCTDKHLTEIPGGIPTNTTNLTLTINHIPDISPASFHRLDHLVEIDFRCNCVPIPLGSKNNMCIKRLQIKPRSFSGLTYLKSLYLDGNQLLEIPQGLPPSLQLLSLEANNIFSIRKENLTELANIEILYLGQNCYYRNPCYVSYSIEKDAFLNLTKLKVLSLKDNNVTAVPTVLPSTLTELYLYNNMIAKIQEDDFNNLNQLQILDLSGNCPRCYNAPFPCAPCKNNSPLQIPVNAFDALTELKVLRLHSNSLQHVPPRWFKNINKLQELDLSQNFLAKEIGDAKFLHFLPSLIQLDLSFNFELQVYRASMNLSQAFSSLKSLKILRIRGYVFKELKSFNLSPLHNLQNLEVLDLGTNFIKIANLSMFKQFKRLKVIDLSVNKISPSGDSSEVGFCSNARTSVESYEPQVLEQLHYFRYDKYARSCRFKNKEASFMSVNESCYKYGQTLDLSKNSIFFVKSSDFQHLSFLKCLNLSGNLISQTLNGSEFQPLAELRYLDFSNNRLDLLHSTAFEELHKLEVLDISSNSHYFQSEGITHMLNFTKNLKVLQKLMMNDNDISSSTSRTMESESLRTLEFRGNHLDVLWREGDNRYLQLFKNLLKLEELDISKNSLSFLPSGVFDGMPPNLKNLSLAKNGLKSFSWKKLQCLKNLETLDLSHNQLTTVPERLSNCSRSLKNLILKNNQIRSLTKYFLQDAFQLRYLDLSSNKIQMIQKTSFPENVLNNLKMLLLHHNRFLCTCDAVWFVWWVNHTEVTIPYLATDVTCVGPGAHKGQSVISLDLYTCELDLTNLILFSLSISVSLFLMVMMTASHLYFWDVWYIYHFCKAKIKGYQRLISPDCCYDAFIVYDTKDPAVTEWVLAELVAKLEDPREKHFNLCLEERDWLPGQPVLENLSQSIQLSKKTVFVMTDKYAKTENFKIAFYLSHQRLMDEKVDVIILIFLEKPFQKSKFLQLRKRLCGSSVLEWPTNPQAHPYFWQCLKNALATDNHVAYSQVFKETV
Put plainly: HEK293 TLR7-NFκB-luc cellular reporter assay. The format is cell-based. The conditions noted are these: lowest effective concentration; HEK293 transiently transfected with TLR7 and NFκB-luc; 6 hours incubation. Here is the method: The ability of compounds to activate human TLR7 and TLR8 was assessed in a cellular reporter assay using HEK293 cells transiently transfected with a TLR7 or TLR8 expression vector and NFκB-luc reporter construct. Briefly, HEK293 cells were grown in culture medium (DMEM supplemented with 10% FCS and 2 mM Glutamine). For transfection of cells in 15 cm dishes, cells were detached with Trypsin-EDTA, transfected with a mix of CMV-TLR7 or TLR8 plasmid (1,700 ng), NFκB-luc plasmid (850 ng) and a transfection reagent and incubated 48 hours at 37° C. in a humidified 5% CO2 atmosphere. Transfected cells were then washed in PBS, detached with Trypsin-EDTA, and resuspended in medium to a density of 1.25×10^5 cells/mL. Forty microliters of cells were then dispensed into each well in 384-well plates, where 200 nL of compound in 100% DMSO was already present. Following 6 hours incubation at 37° C., 5% CO2, the luciferase activity was determined by adding 15 μl of Steady Lite Plus substrate (Perkin Elmer) to each well and readout performed on a ViewLux ultraHTS microplate imager (Perkin Elmer). Dose response curves were generated from measurements performed in quadruplicates. Lowest effective concentrations (LEC) values, defined as the concentration that induces an effect which is at least two fold above the standard deviation of the assay, were determined for each compound.
(In a reporter assay the amount or activity of a reporter protein is the signal.)

The test system of assay [2] is interferon production in human PBMC. The assay is described as follows: Interferon production in human PBMC, read out on HEK-ISRE-luc reporter cells. The format is cell-based. As to conditions: lowest effective concentration, PBMC incubated overnight with compound, supernatant transferred to HEK-ISRE-luc cells; for minimal effective concentration: Homo sapiens, PBMC, 24 h, read-out: PBMC HEK-ISRE-luc (LEC; μM); for PBMC HEK-ISRE-luc (LEC; μM): 24 hours. As for the experimental part: Activation of human TLR7 results in robust production of interferon by plasmacytoid dendritic cells present in human blood. The potential of compounds to induce interferon was evaluated by determination of interferon in the conditioned media from peripheral blood mononuclear cells (PBMC). The presence of interferon in the samples was determined, using an interferon reporter cell line stably expressing an interferon-stimulated responsive elements (ISRE)-luc reporter construct. The ISRE element with sequence TAGTTTCACTTTCCC (SEQ ID NO: 1) is highly responsive to the STAT1-STAT2-IRF9 transcription factor, which becomes activated upon binding of IFN-I to the IFN receptor. Briefly, PBMCs were prepared from buffy coats of at least two donors using a standard Ficoll centrifugation protocol. Isolated PBMCs were resuspended in RPMI medium supplemented with 10% human AB serum and 2×10^5 cells/well were dispensed into 384-well plates containing compounds (70 μL total volume). After overnight incubation of the PBMCs with the compounds, 10 μL of supernatant was transferred to 384-well plates containing 5×10^3 HEK-ISRE-luc cells/well in 30 μL (plated the day before). Following 24 hours of incubation, activation of the ISRE elements was measured by assaying luciferase activity using 40 μL/well Steady Lite Plus substrate (Perkin Elmer) and measured with ViewLux ultraHTS microplate imager (Perkin Elmer). The stimulating activity of each compound on the HEK-ISRE-luc cells was reported as LEC. The LEC in turn indicates the degree of ISRE activation on transfer of a defined amount of PBMC culture medium. Recombinant interferon alfa-2a (Roferon-A) was used as a standard control compound.

For `Nc1nc2cc3c1nc(O)n3Cc1cccc(c1)OC/C=C/CO2` [Compound 1], in assay [1], the “HEK293 TLR7-NFκB-luc (LEC; μM)” value came to 2.88 µM. Besides, the minimal effective concentration in assay [2] turned out to be 0.3 µM.
On to `Nc1nc2cc3c1nc(O)n3Cc1cccc(c1)OCCCCO2` [Compound 2], for which the “HEK293 TLR7-NFκB-luc (LEC; μM)” value in assay [1] amounted to 4.47 µM. The minimal effective concentration in assay [2] came out at 0.93 µM.
Regarding `Nc1nc2cc3c1nc(O)n3Cc1cccc(c1)C/C=C/CCO2` [Compound 3], the “HEK293 TLR7-NFκB-luc (LEC; μM)” value in assay [1] amounted to 0.27 µM. In addition, the minimal effective concentration in assay [2] was 0.033 µM.
Consider `Nc1nc2cc3c1nc(O)n3Cc1ncccc1OC/C=C/CCO2` [Compound 5], for which, in assay [1], the “HEK293 TLR7-NFκB-luc (LEC; μM)” value was determined as 2.14 µM. For the same molecule, the minimal effective concentration in assay [2] was determined as 0.082 µM.
On the same counts, the results for `Nc1nc2cc3c1nc(O)n3Cc1ncccc1OCCCCCO2` [Compound 6] are 1 µM and 0.16 µM.
On the same counts, the results for `COc1ccc2cc1OC/C=C/COc1cc3c(nc(O)n3C2)c(N)n1` [Compound 7] are 3.88 µM and 0.29 µM.
Consider `COc1ccc2cc1OCCCCOc1cc3c(nc(O)n3C2)c(N)n1` [Compound 8], for which the “HEK293 TLR7-NFκB-luc (LEC; μM)” value in assay [1] came out at 7.1 µM. Moreover, in assay [2], the minimal effective concentration came out at 0.58 µM.
Taken in the same sequence, the figures for `Nc1nc2cc3c1nc(O)n3Cc1cccc(c1)CCCCCN2` [Compound 9] were 11.09 µM and 10.9 µM.
Taken in the same sequence, the figures for `Nc1nc2cc3c1nc(O)n3Cc1cccc(c1)OC/C=C/CCO2` [Compound 10] were 0.78 µM and 0.25 µM.
On the same counts, the results for `Nc1nc2cc3c1nc(O)n3Cc1cccc(c1)OC/C=C/CCCO2` [Compound 11] are 1.25 µM and 0.45 µM.
Regarding `COc1cc2cc(c1)OC/C=C/COc1cc3c(nc(O)n3C2)c(N)n1` [Compound 12], in assay [1], the “HEK293 TLR7-NFκB-luc (LEC; μM)” value came out at 1.08 µM. For the same molecule, in assay [2], the minimal effective concentration worked out at 0.3 µM.
Taken in the same sequence, the figures for `COc1cc2cc(c1)OCCCCOc1cc3c(nc(O)n3C2)c(N)n1` [Compound 13] were 1.71 µM and 0.15 µM.
On to `Nc1nc2cc3c1nc(O)n3Cc1cccc(c1)OCCCCCO2` [Compound 14], for which the “HEK293 TLR7-NFκB-luc (LEC; μM)” value in assay [1] worked out at 7.01 µM. Also, the minimal effective concentration in assay [2] worked out at 2.4 µM.
Taken in the same sequence, the figures for `COc1cc2cc(c1)OC/C=C/CCOc1cc3c(nc(O)n3C2)c(N)n1` [Compound 15] were 0.18 µM and 0.04 µM.
Taken in the same sequence, the figures for `Nc1nc2cc3c1nc(O)n3Cc1ccc(F)c(c1)OC/C=C/CO2` [Compound 16] were 2.02 µM and 0.47 µM.
`Cl.Nc1nc2cc3c1nc(O)n3Cc1ccc(F)c(c1)OC/C=C/CO2` [Compound 17]: in assay [1], the “HEK293 TLR7-NFκB-luc (LEC; μM)” value is 1.88 µM. The “PBMC HEK-ISRE-luc (LEC; μM)” value in assay [2] stood at 0.39 µM.
As for `Nc1nc2cc3c1nc(O)n3Cc1cccc(c1)NC/C=C/CO2` [Compound 18], the “HEK293 TLR7-NFκB-luc (LEC; μM)” value in assay [1] came out at 8.02 µM. Further, the minimal effective concentration in assay [2] came out at 1.11 µM.
On the same counts, the results for `Nc1nc2cc3c1nc(O)n3Cc1ccc(F)c(c1)OCCCCCO2` [Compound 19] are 14.96 µM and 2.22 µM.
With `Cl.Nc1nc2cc3c1nc(O)n3Cc1ccc(F)c(c1)OCCCCCO2` [Compound 20], in assay [1], the “HEK293 TLR7-NFκB-luc (LEC; μM)” value was 4.99 µM. The “PBMC HEK-ISRE-luc (LEC; μM)” value in assay [2] is 1.61 µM.
Turning to `Nc1nc2cc3c1nc(O)n3Cc1ccc(F)c(c1)OC/C=C/CCO2` [Compound 21], in assay [1], the “HEK293 TLR7-NFκB-luc (LEC; μM)” value worked out at 0.9 µM. Moreover, in assay [2], the minimal effective concentration stood at 0.25 µM.
`Cl.Nc1nc2cc3c1nc(O)n3Cc1ccc(F)c(c1)OC/C=C/CCO2` [Compound 22]: the “HEK293 TLR7-NFκB-luc (LEC; μM)” value in assay [1] worked out at 1.83 µM. Also, in assay [2], the “PBMC HEK-ISRE-luc (LEC; μM)” value amounted to 0.39 µM.
Consider `Nc1nc2cc3c1nc(O)n3Cc1cccc(c1)NCCCCO2` [Compound 23], for which the “HEK293 TLR7-NFκB-luc (LEC; μM)” value in assay [1] amounted to 16.74 µM. Besides, in assay [2], the minimal effective concentration worked out at 8.98 µM.
On to `Nc1nc2cc3c1nc(O)n3Cc1ccc(F)c(c1)OCCCCO2` [Compound 24], for which the minimal effective concentration in assay [2] came to 2.14 µM.
In the case of `Nc1nc2cc3c1nc(O)n3Cc1cccc(c1)OCC/C=C/CO2` [Compound 25], in assay [1], the “HEK293 TLR7-NFκB-luc (LEC; μM)” value was 1.92 µM. The minimal effective concentration in assay [2] was 0.53 µM.
Taken in the same sequence, the figures for `Nc1nc2cc3c1nc(O)n3Cc1cccc(c1)NC/C=C/CCO2` [Compound 26] were 1.88 µM and 0.37 µM.
On the same counts, the results for `Nc1nc2cc3c1nc(O)n3Cc1cc(F)cc(c1)OC/C=C/CCO2` [Compound 27] are 1.35 µM and 0.14 µM.
Regarding `Cl.Nc1nc2cc3c1nc(O)n3Cc1cc(F)cc(c1)OC/C=C/CCO2` [Compound 28], in assay [1], the “HEK293 TLR7-NFκB-luc (LEC; μM)” value turned out to be 0.91 µM. Also, the “PBMC HEK-ISRE-luc (LEC; μM)” value in assay [2] was 0.15 µM.
Regarding `Nc1nc2cc3c1nc(O)n3Cc1cccc(c1)NC/C=C\CCO2` [Compound 29], the “HEK293 TLR7-NFκB-luc (LEC; μM)” value in assay [1] was found to be 1.14 µM. Also, in assay [2], the minimal effective concentration turned out to be 0.48 µM.
Consider `Nc1nc2cc3c1nc(O)n3Cc1cc(F)cc(c1)OC/C=C/CO2` [Compound 30], for which the “HEK293 TLR7-NFκB-luc (LEC; μM)” value in assay [1] stood at 0.64 µM. The minimal effective concentration in assay [2] was 0.15 µM.
As to `Cl.Nc1nc2cc3c1nc(O)n3Cc1cc(F)cc(c1)OC/C=C/CO2` [Compound 31], in assay [1], the “HEK293 TLR7-NFκB-luc (LEC; μM)” value turned out to be 1.19 µM. Also, the “PBMC HEK-ISRE-luc (LEC; μM)” value in assay [2] turned out to be 0.15 µM.
Consider `Nc1nc2cc3c1nc(O)n3Cc1cc(F)cc(c1)OCCCCCO2` [Compound 32], for which, in assay [1], the “HEK293 TLR7-NFκB-luc (LEC; μM)” value stood at 2.92 µM. Besides, the minimal effective concentration in assay [2] was 0.49 µM.
Taken in the same sequence, the figures for `Nc1nc2cc3c1nc(O)n3Cc1cc(F)cc(c1)OCCCCO2` [Compound 33] were 2.77 µM and 0.45 µM.
Taken in the same sequence, the figures for `Nc1nc2cc3c1nc(O)n3Cc1cccc(c1)NCCCCCO2` [Compound 34] were 8.1 µM and 2.11 µM.
On to `Nc1nc2cc3c1nc(O)n3CCc1cccc(c1)OC/C=C/CO2` [Compound 35], for which the “HEK293 TLR7-NFκB-luc (LEC; μM)” value in assay [1] was 17.43 µM. For the same molecule, the minimal effective concentration in assay [2] came to 1.98 µM.
